Laboratory results: ChEMBL document CHEMBL1148143, “Globulixanthones A and B, two new cytotoxic xanthones with isoprenoid groups from the root bark of Symphonia globulifera” (J Nat Prod, 2002)
In brackets after ≈: the same amount, converted by molar mass.

Tested on: KB
Experiment: Cytotoxicity against human KB cells
Type: functional, cell-based

For `CC(C)=CCCC1(C)C=Cc2c(cc(O)c3oc4cccc(O)c4c(=O)c23)O1` (configuration not stated) [GLOBULIXANTHONE B], the IC50 was 1.78 µg/mL (≈ 4.7 µM).
Molecule `C=C(C)/C=C/c1cc2c(=O)c3c(O)cccc3oc2c(OC)c1O` [GLOBULIXANTHONE A] has an IC50 of 2.15 µg/mL (≈ 6.63 µM).
